Data as given in ChEMBL document CHEMBL1201862, “PubChem BioAssay data set” (2004).
Each block holds one compound with its values, some of them ahead of it. The source made the active and inactive calls.

Assays:
Cytochrome P450 1A2 = biological target: T1, Cytochrome P450 1A2 (Homo sapiens, UniProt P05177);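 note: PubChem cytochrome P450 panel assay, CYP1A2 panel member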
T1 sequence (P05177 whole entry): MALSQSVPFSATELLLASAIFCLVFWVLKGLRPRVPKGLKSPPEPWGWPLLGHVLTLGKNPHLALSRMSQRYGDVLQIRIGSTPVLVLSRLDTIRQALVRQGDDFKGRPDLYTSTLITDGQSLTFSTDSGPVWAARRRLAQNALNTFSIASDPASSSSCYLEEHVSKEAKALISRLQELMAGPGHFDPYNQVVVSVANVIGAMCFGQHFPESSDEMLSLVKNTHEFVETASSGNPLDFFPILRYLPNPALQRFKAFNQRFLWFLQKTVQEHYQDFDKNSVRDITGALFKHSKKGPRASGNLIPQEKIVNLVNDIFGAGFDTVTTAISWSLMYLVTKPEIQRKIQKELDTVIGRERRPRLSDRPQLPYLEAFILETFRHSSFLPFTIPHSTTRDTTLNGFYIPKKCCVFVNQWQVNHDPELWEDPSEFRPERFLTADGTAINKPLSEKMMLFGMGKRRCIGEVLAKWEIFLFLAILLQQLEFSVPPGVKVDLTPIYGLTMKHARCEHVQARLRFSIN

Cytochrome P450 3A4 = Cytochrome P450 3A4 (Homo sapiens, UniProt P08684);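 note: CYP3A4 tested as one member of a cytochrome P450 panel screen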
[1] = Luminescence Cell-Based Dose Retest to Confirm Inhibitors of Cancer Stem Cells. [Related pubchem assays (depositor defined):AID2717, AID2721]; format: functional; conditions: Homo sapiens
[2] = NIH3T3 cell viability loss – ATP luminescence, mouse fibroblasts, counter-screen, dose response (AID 2010); format: functional, cell-based;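 note: cells exposed to compound for about 90 hours before reading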
[3] = Trypanosoma cruzi growth suppression in host cells – NIH3T3 host cells, beta-gal luminescence, confirmation (AID 2044); format: functional, cell-based;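 note: intracellular parasites grown in NIH/3T3 mouse fibroblasts as host cells; luminescent beta-galactosidase reporter signal from transgenic T. cruzi replicating inside host cells; inhibitors lower the luminescence signal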
[4] = test system: Streptococcus sp. 'group A'; experiment: Streptococcus pyogenes SK(-)GAS viability under kanamycin – luminescence, BacTiterGlo, confirmation, counter-screen for streptokinase expression inhibitor project, dose response (AID 1900); format: functional, organism-based
Streptococcus = experiment: GAS UMAA2166 growth inhibition – luminescence, BacTiterGlo, counter-screen for streptokinase expression inhibitor project, dose response (AID 1915); format: functional, organism-based;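 note: potency for reduction of bacterial viability or growth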
[5] = biological target: T2, Rac GTPase-activating protein 1 (Homo sapiens, UniProt Q9H0H5); experiment: blockers of MgcRacGAP-driven Rac1 GTP hydrolysis – biochemical, ADP Hunter fluorescence, primary and confirmatory, confirmation (AID 624330); format: functional
T2 sequence (Q9H0H5 whole entry): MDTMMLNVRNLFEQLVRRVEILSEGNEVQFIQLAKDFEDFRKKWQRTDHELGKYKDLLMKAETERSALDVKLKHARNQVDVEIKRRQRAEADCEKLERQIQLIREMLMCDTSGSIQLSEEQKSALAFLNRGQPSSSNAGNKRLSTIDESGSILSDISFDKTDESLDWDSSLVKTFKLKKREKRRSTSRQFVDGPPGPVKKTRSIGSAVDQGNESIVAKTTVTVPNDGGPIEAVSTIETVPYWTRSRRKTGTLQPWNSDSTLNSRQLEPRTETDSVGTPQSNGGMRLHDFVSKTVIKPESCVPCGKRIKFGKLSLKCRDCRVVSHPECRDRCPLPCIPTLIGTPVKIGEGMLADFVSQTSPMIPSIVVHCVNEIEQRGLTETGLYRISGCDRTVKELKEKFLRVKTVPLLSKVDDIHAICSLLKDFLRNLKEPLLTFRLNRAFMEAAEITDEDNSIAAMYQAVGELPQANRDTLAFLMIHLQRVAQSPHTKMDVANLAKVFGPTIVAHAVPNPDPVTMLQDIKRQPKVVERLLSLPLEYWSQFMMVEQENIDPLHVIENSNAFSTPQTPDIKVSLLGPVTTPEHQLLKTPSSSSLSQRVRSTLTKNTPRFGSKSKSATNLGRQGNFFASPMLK

Chain of Cytochrome P450 3A4 (P08684 whole entry): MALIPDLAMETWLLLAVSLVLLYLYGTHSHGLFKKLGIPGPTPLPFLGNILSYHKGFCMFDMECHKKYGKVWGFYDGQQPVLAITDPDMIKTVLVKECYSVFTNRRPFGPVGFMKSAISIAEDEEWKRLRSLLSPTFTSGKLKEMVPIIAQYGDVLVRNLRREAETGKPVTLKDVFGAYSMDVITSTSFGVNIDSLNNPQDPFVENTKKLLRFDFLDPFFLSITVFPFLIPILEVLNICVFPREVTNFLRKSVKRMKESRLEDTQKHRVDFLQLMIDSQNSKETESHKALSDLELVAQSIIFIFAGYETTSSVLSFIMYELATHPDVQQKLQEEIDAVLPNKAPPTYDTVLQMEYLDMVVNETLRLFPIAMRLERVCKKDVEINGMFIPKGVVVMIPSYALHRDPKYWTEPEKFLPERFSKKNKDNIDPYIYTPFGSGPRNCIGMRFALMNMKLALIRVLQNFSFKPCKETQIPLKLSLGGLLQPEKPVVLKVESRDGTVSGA

AC50 (Cytochrome P450 1A2): 39.8 µM (inconclusive)
AC50 (Cytochrome P450 3A4): 25.1 µM (inconclusive)
SMILES: COC(=O)c1ccc(N2CCN(c3ccccc3)CC2)c(NC(=O)C2CC2)c1

SMILES: CCC(C)c1ccccc1NC(=O)COC(=O)c1ccc2[nH]c3c(c2c1)CCCC3 (stereo not given)
AC50 [1]: 2.09 µM (active)

AC50 (Cytochrome P450 3A4): 15.8 µM (inconclusive)
SMILES: COc1ccc(NC(=O)N2CCCC3(CCN(C(=O)c4cnccn4)CC3)C2)cc1

AC50 (Cytochrome P450 1A2): 3.16 µM (inconclusive)
SMILES: CCCN1C[C@H](CSC)C[C@H]2c3cccc4[nH]cc(c34)C[C@@H]21

AC50 (Cytochrome P450 1A2): 6.31 µM (inconclusive)
SMILES: COc1ccc(-c2nc3cnc(OC)nc3n(CCC#N)c2=O)cc1

AC50 (Cytochrome P450 1A2): 25.1 µM (inconclusive)
AC50 (Cytochrome P450 3A4): 20 µM (inconclusive)
SMILES: O=C(Nc1ccccc1)N1CCCC2(CCNCC2)C1

SMILES: Cc1cccc(NC(=S)N(CCc2nc3cc(C)c(C)cc3[nH]2)Cc2cccnc2)c1
EC50 [2]: > 60 µM (not active)
EC50 [3]: 0.853 µM (active)

AC50 (Cytochrome P450 3A4): 31.6 µM (inconclusive)
SMILES: Cc1ccc(C)c(-n2c(Cc3cc(O)nc(O)n3)nnc2SCC(=O)NCC2CCCO2)c1 (stereo not given)

SMILES: Cc1ccc(Cl)cc1N1CCN(C(=O)c2ccc(CN3CCOCC3)cc2)CC1
EC50 [2]: 4.63 µM (active)
EC50 [3]: 2.13 µM (active)

SMILES: N#CC1=C(N)NC(SCc2ccc(Br)cc2)=C(C#N)C12CCCCC2
EC50 [2]: > 60 µM (not active)
EC50 [3]: 3.29 µM (active)

SMILES: CCn1c(NC(=O)c2cccc(Cn3cc(Cl)cn3)c2)nc2ccccc21
EC50 [4]: 3.97 µM (active)
EC50 (Streptococcus): 18.6 µM (active)

SMILES: COc1cccc(-c2sc3ccc(OC)cc3c2C#CCC(C)O)c1 (stereo not given)
AC50 [1]: 3.66 µM (active)

SMILES: COc1ccc(C(c2nnnn2Cc2ccccc2)N2CCN(c3nc4ccccc4s3)CC2)cc1 (stereo not given)
EC50 [2]: 8.63 µM (active)
EC50 [3]: 3 µM (active)

SMILES: CCO/C(O)=C(/C#N)c1nc2ccccc2nc1N(CC(C)C)CC(C)C
AC50 [1]: 6.07 µM (active)

SMILES: CC(C)NCC(O)COC1C2CC3CC(C2)CC1C3 (stereo not given)
EC50 [2]: > 60 µM (not active)
EC50 [3]: 1.14 µM (active)

AC50 (Cytochrome P450 3A4): 15.8 µM (inconclusive)
SMILES: Cn1c(=O)c2c(nc(Cl)n2Cc2ccc(Cl)c(Cl)c2)n(C)c1=O

AC50 (Cytochrome P450 1A2): 12.6 µM (inconclusive)
AC50 (Cytochrome P450 3A4): 15.8 µM (inconclusive)
SMILES: CN1CCN(c2ncc3nc(CCc4ccccc4)c(=O)n(C4CC4)c3n2)CC1

SMILES: CCCCNC(=O)CCc1c(C)nc2c(c(C)nn2-c2ccccc2)c1C
EC50 [2]: > 30 µM (not active)
EC50 [3]: 1.39 µM (active)

SMILES: CCOc1cc(-c2cc(-c3ccc(NC(C)=O)cc3)nc(N)c2C#N)ccc1O
EC50 [4]: 0.651 µM (active)
EC50 (Streptococcus): 6.34 µM (active)

SMILES: Cc1nn(CC(=O)NC2C(=O)N3C(C(=O)O)=C(CSc4nnnn4C)CSC23)cc1Br (stereo not given)
EC50 [4]: 0.072 µM (active)
EC50 (Streptococcus): 0.316 µM (active)

SMILES: COc1cccc(Oc2nc(-c3ccncc3)nc3ccccc23)c1
EC50 [2]: 7.86 µM (active)
EC50 [3]: 2.41 µM (active)

AC50 (Cytochrome P450 1A2): 15.8 µM (inconclusive)
SMILES: Cn1cc(-c2nc3cnc(N4CCNCC4)nc3n(C)c2=O)c2ccccc21

SMILES: CN(CCc1ccccn1)Cc1ccc(Cl)c(Cl)c1
EC50 [2]: > 60 µM (not active)
EC50 [3]: 0.244 µM (active)

SMILES: CN(C)C=O.O=[N+]([O-])c1cccc(COc2ncnc3cc([N+](=O)[O-])ccc23)c1
EC50 [2]: > 60 µM (not active)
EC50 [3]: 1.93 µM (active)

AC50 (Cytochrome P450 1A2): 5.01 µM (inconclusive)
SMILES: CC1=C(C(=O)Nc2cccnc2)C(c2cccnc2)n2nc(-c3cccs3)nc2N1 (stereo not given)

SMILES: COc1ccc(-n2nc([N+](=O)[O-])c(NCCc3cccc(C)c3)[n+]2[O-])cc1
EC50 [2]: > 60 µM (inconclusive)
EC50 [3]: 0.48 µM (active)

IC50 [5]: 46.9 µM (active)
SMILES: O=c1ccn(-c2ccccc2)[nH]1

SMILES: O=[N+]([O-])c1ccc(Nc2nc(NC3CCCCC3)nc(N3CCCC3)n2)cc1
EC50 [2]: > 60 µM (not active)
EC50 [3]: 1.75 µM (active)

SMILES: COC(=O)c1ccc(-c2noc(CN(Cc3ccncc3)CC3CCCO3)n2)cc1 (stereo not given)
EC50 [2]: > 60 µM (inconclusive)
EC50 [3]: 2.46 µM (active)

SMILES: Cc1c(C)n(CCCN(C)C)c2ncnc(Nc3ccc(F)cc3)c12
EC50 [2]: > 30 µM (not active)
EC50 [3]: 0.9 µM (active)

AC50 (Cytochrome P450 3A4): 15.8 µM (inconclusive)
SMILES: CN1CCN(c2ccnc(-c3ccc(N(C)C)cc3)n2)CC1

SMILES: Nc1nc2c(C(=O)NCc3cccs3)nnn2c2cccc(Cl)c12
AC50 (Cytochrome P450 1A2): 1 µM (inconclusive)

AC50 (Cytochrome P450 3A4): 3.16 µM (inconclusive)
SMILES: C#CCCCO/N=C1/C[C@@H](O)[C@@H](O)[C@@H]2[C@@H]3C(=O)N(CCC(=O)OCC)C(=O)[C@H]3CC[C@@H]12

SMILES: CCc1ccccc1NC(=O)CN(c1ccc(OC)cc1OC)S(=O)(=O)c1ccccc1[N+](=O)[O-]
EC50 [2]: > 60 µM (not active)
EC50 [3]: 2.25 µM (active)

IC50 [5]: 84.4 µM (active)
SMILES: COc1ccc(CN(C)CC(=O)Nc2ccc(Cl)cc2C(F)(F)F)c(OC)c1

IC50 [5]: 15 µM (active)
SMILES: Oc1ccc(Nc2ncnc3c2oc2ccccc23)cc1

SMILES: Clc1ccc(COc2cccc(CNCc3ccncc3)c2)cc1
EC50 [2]: > 60 µM (not active)
EC50 [3]: 3.42 µM (active)

SMILES: COc1ccc(-c2c[n+](CC(=O)N3c4ccccc4Sc4ccccc43)c3n2CCC3)cc1
EC50 [2]: > 60 µM (not active)
EC50 [3]: 0.648 µM (active)

AC50 (Cytochrome P450 3A4): 15.8 µM (inconclusive)
SMILES: COCCNC(=O)c1onc(CSc2ccc(Cl)cc2)c1C(=O)O

SMILES: Cc1c(C(=O)Nc2ccc3c(c2)OCCO3)sc2nc(-c3ccccc3)cn12
EC50 [4]: 3.01 µM (active)
EC50 (Streptococcus): 7.44 µM (active)

SMILES: CCc1ccc(-c2cc3c(=O)n(CC(=O)NCCN4CCCCC4C)nc(C)n3n2)cc1 (stereo not given)
AC50 [1]: 2.45 µM (active)

AC50 (Cytochrome P450 1A2): 10 µM (inconclusive)
SMILES: O=C(O)[C@@H]1CCN(Cc2oc(CO)cc(=O)c2O)C1

AC50 (Cytochrome P450 1A2): 6.31 µM (inconclusive)
SMILES: CC1=C(/C=C\C(=O)O)C(C)(C)CCC1

AC50 (Cytochrome P450 3A4): 0.0562 µM (inconclusive)
SMILES: CCS(=O)(=O)N1CCC(C(=O)NCCCOC)CC1

IC50 [5]: 41.9 µM (active)
SMILES: Oc1ccc2ccc(Cl)cc2c1

IC50 [5]: 47.1 µM (active)
SMILES: COc1cc(/C=N/Nc2nc(C)cc(C)n2)ccc1O

IC50 [5]: 90.1 µM (active)
SMILES: COc1cc(C(=O)N/N=C/c2cn(Cc3ccccc3)c3ccccc23)ccc1O

SMILES: COc1ccc(/C=N/N(Cc2ccccc2)c2ccccc2)cc1O
AC50 [1]: 6.09 µM (active)

IC50 [5]: 54.4 µM (active)
SMILES: COc1cc(/C=N/N=C2\CC3CCC2(C)C3(C)C)ccc1O (stereo not given)

SMILES: Cc1nc2ccc(Br)cn2c1C(=O)N/N=C\c1ccc(C(C)C)cc1
AC50 [1]: 2.75 µM (active)

SMILES: COc1ccc2[nH]c3c(c2c1)CCN=C3C
AC50 (Cytochrome P450 3A4): 5.01 µM (inconclusive)

IC50 [5]: 202 µM (active)
SMILES: COc1cc2nc(=S)n(CCCN3CCOCC3)c(N)c2cc1OC
